Several values for one entry are separate records, joined by “and”; a condition that tells them apart may be missing. Equal values may be shown once. Read-outs that look alike come from different tables or passages of the source.
Tests used:
CB1 receptor [1] = target: T1, CB1 receptor (Mus musculus, UniProt P47746); settings: [3H]-CP 55,940, mouse brain (minus cerebellum) homogenate; lead compound; read-out: KiCB1; cited from earlier work
T1 construct: from tissue; host or cells: mouse (CD1) brain minus cerebellum, membrane homogenate
T1 sequence (P47746 whole entry): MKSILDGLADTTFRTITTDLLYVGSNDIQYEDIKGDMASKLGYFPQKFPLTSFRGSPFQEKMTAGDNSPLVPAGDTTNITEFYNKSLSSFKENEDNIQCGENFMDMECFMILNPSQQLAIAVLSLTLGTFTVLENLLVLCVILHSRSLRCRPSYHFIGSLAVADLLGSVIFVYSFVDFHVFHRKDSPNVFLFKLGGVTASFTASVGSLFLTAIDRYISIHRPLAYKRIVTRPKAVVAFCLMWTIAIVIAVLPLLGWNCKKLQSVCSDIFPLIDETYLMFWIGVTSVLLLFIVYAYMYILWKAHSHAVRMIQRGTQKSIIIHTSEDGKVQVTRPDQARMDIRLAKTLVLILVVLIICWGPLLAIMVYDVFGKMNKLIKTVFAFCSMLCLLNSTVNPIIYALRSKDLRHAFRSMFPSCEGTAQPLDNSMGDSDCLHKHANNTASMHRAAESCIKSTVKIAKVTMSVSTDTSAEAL

[2] = target: T2, CB1Rs of mouse vas deferens (Mus musculus, UniProt P47746); experiment: Isolated organ assay: electrically evoked contractions of mouse vas deferens
T2 construct: naturally expressed prejunctional neuronal CB1Rs; from tissue; host or cells: isolated vas deferens of male albino CD1 mice
T2 sequence (P47746 whole entry): as above
Procedure: Vas deferens was obtained from male albino CD1 mice weighing 30 to 40 g. Tissue was mounted in a 10 mL organ bath at an initial tension of 0.5 g using a previously described method [16]. The bath contained Krebs-Henseleit solution (118.2 mM NaCl, 4.75 mM KCl, 1.19 mM KH2PO4, 25.0 mM NaHCO3, 11.0 mM glucose, and 2.54 mM CaCl2), which was kept at 37 °C and bubbled with 95% O2 and 5% CO2. Isometric contractions were evoked by stimulation with 0.5 sec trains of three pulses of 110% maximal voltage (train frequency, 0.1 Hz; pulse duration, 0.5 msec) through platinum electrodes attached to the upper end of each bath and a stainless-steel electrode attached to the lower end. Stimuli were generated using a Grass S88K stimulator and then amplified (multiplexing pulse booster 316S; Ugo Basile, Comerio, Italy) and divided to yield separate outputs to four organ baths. Contractions were monitored using a computer equipped with a data recording and analysis system (PowerLab 400) linked via preamplifiers (QuadBridge) to an F10 transducer (Biological Instruments, Besozzo, Italy). Each tissue was subject to several periods of stimulation. […] The stimulator was then switched off for 15 min, after which the tissues were subjected to further periods of stimulation each lasting 5 min and separated by a stimulation-free period. The compounds to be assayed were added once the contractile responses to electrical stimulation were reproducible. Preparations were exposed to cumulative increasing concentrations of the compounds to obtain concentration-response curves in the case of CB1 agonist (and partial agonist) compounds. […] Inhibition of the electrically evoked twitch response was expressed in percentage terms and was calculated by comparing the amplitude of the twitch response after each addition of the agonist compound (alone or in the presence of a potential CB1 antagonist) with the amplitude detected in absence of the compounds to be assayed (basal value). The pA2 values for competitive antagonism were calculated by Schild regression analysis [37]. Data were plotted as log antagonist concentration versus log [(antagonist concentration/agonist concentration)-1].

CB2 receptor [3] = target: T3, CB2 receptor (Mus musculus, UniProt P47936); settings: [3H]-CP-55,940, mouse spleen homogenate; lead compound; read-out: KiCB2; cited from earlier work
T3 construct: from tissue; host or cells: mouse (CD1) spleen, membrane homogenate
T3 sequence (P47936 whole entry): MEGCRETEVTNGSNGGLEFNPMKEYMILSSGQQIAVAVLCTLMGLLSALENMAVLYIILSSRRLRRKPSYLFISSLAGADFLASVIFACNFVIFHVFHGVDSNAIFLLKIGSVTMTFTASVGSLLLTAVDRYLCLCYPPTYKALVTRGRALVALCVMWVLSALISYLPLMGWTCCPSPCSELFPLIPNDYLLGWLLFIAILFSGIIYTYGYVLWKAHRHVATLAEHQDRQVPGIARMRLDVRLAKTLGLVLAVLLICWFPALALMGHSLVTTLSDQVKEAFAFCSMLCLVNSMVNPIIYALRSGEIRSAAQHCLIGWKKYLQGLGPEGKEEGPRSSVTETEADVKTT

C57Bl6/J mice = experiment: Acute food intake in fasted mice; type: in vivo, mouse
Procedure: To further evaluate the potential application of these CB1 antagonists in the control of food intake and in obesity treatment, compound 1b was preliminarily tested in comparison with SR141716A in an acute in vivo assay using C57Bl6/J mice. The evaluation was carried out according to the animal model previously reported by Di Marzo [19].
It is well known that CB1Rs mediate the hyperphagic effect of cannabinoids. […] To test the potential anti-obesity effect of the new CB1 antagonist 1b we performed food intake experiments according to the acute animal model described by Di Marzo [19]. For a comparison we also reported the results concerning the assumed lead compound of this new series, derivative 1a.
A widely described method was used for the screening of the new CB1 antagonists in the food intake animal model. C57Bl6/J mice weighing 20–25 g were housed individually on a reverse light-dark cycle in a room with temperature and humidity control. The mice were fasted for 18 h before testing. Vehicle or CB1 antagonists were administered by an intraperitoneal injection and 15 min later a known amount of food was presented. Food pellets were weighed after each hour for three hours. Rimonabant was used as internal positive control in order to evaluate the efficacy of each compound. All animal experiments were performed according to the UE (CEE N° 86/609) guidelines for the care and use of experimental animals.
Two-way ANOVA with Bonferroni post-testing was performed using GraphPad Prism version 5.00 for Windows (GraphPad Software, San Diego CA, USA).

obese mice = system: obese mice; parameters: method as in PMID 23756200; settings: chronic treatment of obese mice; cited from earlier work
[4] = parameters: method as in PMID 23756200; settings: cited from earlier work
CB2 receptor [5] = target: T3, CB2 receptor; experiment: CB2 radioligand binding, [3H]-CP-55,940 competition in mouse spleen homogenate; settings: [3H]-CP-55,940, mouse spleen homogenate; mean ± standard error, five independent experiments in triplicate; read-out: KiCB2
Procedure: Affinities at CB1R and CB2R for compounds 1c–j were assessed by competition of [^3H]-CP-55,940 in mouse brain (minus cerebellum) and spleen homogenates, respectively. Radioligand binding experimental procedures previously reported by us were adopted.
(§1) Male CD1 mice weighing 30–35 g were killed by cervical dislocation and the brain (minus cerebellum) and spleen were rapidly removed and frozen. After thawing, tissues were homogenated in 20 vol. (wt/v) of ice-cold TME buffer (50 mM Tris-HCl, 1 mM EDTA and 3.0 mM MgCl2, pH 7.4). The homogenates were centrifuged at 1,086 ×g for 10 min at 4 °C, and the resulting supernatants were centrifuged at 45,000 ×g for 30 min.
[^3H]-CP-55,940 binding was performed using the method previously described by Ruiu et al.. Briefly, the membranes (30–80 µg of protein) were incubated with 0.5–1 nM of [^3H]-CP-55,940 for 1 h at 30 °C in a final volume of 0.5 mL of TME buffer containing 5 mg/mL of fatty acid-free bovine serum albumin. Non-specific binding was estimated in the presence of 1 µM of CP-55,940. All binding studies were performed in disposable glass tubes pre-treated with Sigma-Cote (Sigma Chemical Co., Ltd., Poole, UK), in order to reduce non-specific binding. The reaction was terminated by rapid filtration through Whatman GF/C filters presoaked in 0.5% polyethyleneimine (PEI) using a Brandell 36-sample harvester (Gaithersburg, MD, USA). Filters were washed five times with 4 mL aliquots of ice-cold Tris HCl buffer (pH 7.4) containing 1 mg/mL BSA. The filter bound radioactivity was measured in a liquid scintillation counter (Tricarb 2900, Packard, Meridien, […], USA) with 4 mL of scintillation fluid (Ultima Gold MV, Packard).
(§2) Protein determination was performed by means of a Bradford protein assay using BSA as a standard according to the protocol of the supplier (Bio-Rad, Milan, Italy).
(§3) All experiments were performed in triplicate and results were confirmed in at least five independent experiments. Data from radioligand inhibition experiments were analysed by nonlinear regression analysis of a Sigmoid Curve using Graph Pad Prism program. IC50 values were derived from the calculated curves and converted to Ki values as previously described.

CB1 receptor [6] = target: T1, CB1 receptor; experiment: CB1 radioligand binding, [3H]-CP-55,940 competition in mouse brain (minus cerebellum) homogenate; settings: for Ki: [3H]-CP 55,940, mouse brain (minus cerebellum) homogenate, mean ± standard error, five independent experiments in triplicate, read-out: KiCB1; for CB1-affinity decrease relative to 1a: compared with 1a (Ki 10.25 nM); for Selectivity KiCB2/KiCB1: ratio of KiCB2 to KiCB1
Procedure: Radioligand binding experimental procedures previously reported by us were adopted.
as §1
All binding studies were performed in disposable glass tubes pre-treated with Sigma-Cote (Sigma Chemical Co., Ltd., Poole, UK), in order to reduce non-specific binding. The reaction was terminated by rapid filtration through Whatman GF/C filters presoaked in 0.5% polyethyleneimine (PEI) using a Brandell 36-sample harvester (Gaithersburg, MD, USA). Filters were washed five times with 4 mL aliquots of ice-cold Tris HCl buffer (pH 7.4) containing 1 mg/mL BSA. The filter bound radioactivity was measured in a liquid scintillation counter (Tricarb 2900, Packard, Meridien, […], USA) with 4 mL of scintillation fluid (Ultima Gold MV, Packard).
as §2, §3

CD1 mice = experiment: Gastrointestinal transit (GIT), carmine marker; type: in vivo, mouse; settings: data not shown
Excerpt: The mouse isolated vas deferens is a nerve-smooth muscle preparation that serves as a highly sensitive and quantitative functional in vitro bioassay for cannabinoid CB1R agonists. The effect of CB1 agonists is related to the action on naturally expressed prejunctional neuronal CB1Rs to inhibit release of the contractile neurotransmitters, noradrenaline and ATP, which is provoked by electrical stimulation. It has been shown that CB1 antagonist derivatives are able to block or reduce the inhibition of the electrically evoked contraction amplitude of the vas deferens induced by CB1 agonists, with parallel dextral shifts in CB1R agonist log concentration-response curves in electrically stimulated tissues. According to previous studies concerning cannabinoid agents, a gastrointestinal transit test was adopted to confirm CB1 antagonism. […] Moreover, the capability of CB1 antagonist compounds both to block the constipation effect induced by cannabinoid agonists and to themselves increase themselves gastrointestinal motility has been reported.
The same procedure previously reported by Murineddu et al. was adopted to evaluate the effect of the compounds on GIT. CD1 mice weighing 30–35 g were used. Carmine (Sigma Chemical Co, St. Louis, MO, USA) was suspended (6% wt/v) in distilled water containing 0.5% methylcellulose and administered by gavage at the dose of 0.3 mL/mouse. Briefly, after 20 min from carmine administration, mice were sacrificed by cervical dislocation and the stomach and small intestine were removed and the omentum was separated, avoiding stretching. The length of the intestine was measured starting from the pyloric sphincter to the ileocecal junction. The distance travelled by the head of the marker was measured and expressed as a percent of the total length of the small intestine. Using this procedure, the marker was consistently found at approximately 50% of the small intestine, 20 min after its administration to naive mice.
20 min later, mice were killed by dislocation cervical and intestines were removed. […] The length of the intestine from the pyloric sphincter to the ileocecal junction and the distance travelled by the carmine front were both measured and recorded. Groups of n = 10 mice were used in each experiment.
Statistical analyses were performed by one-way ANOVA followed by Newman-Keuls post-hoc comparison.

[7] = system: P-ERK 1/2 expression in mouse neuroblastoma N1E-115 cells (CB1Rs); experiment: P-ERK 1/2 expression in N1E-115 cells (Western blot); type: cell-based; settings: 10 min exposure
Procedure: Agonist or antagonist activity of the new derivatives towards CB1Rs were assayed through in vitro testing based on the determination of phosphorylated ERK 1/2 (P-ERK 1/2) expression in a mouse neuroblastoma N1E-115 cell line. As previously reported, this cell line expresses CB1Rs but not CB2Rs; moreover, it has been shown that the exposure of N1E-115 cells to the cannabinoid agonists arachidonyl-2-chloroethylamide (ACEA) and WIN 55-212,2 induces a rapid phosphorylation and activation of the ERK 1/2. The addition of CB1 antagonists as SR141716A abolishes the response induced by the cannabinoid agonists.
N1E-115 cells were grown at 37 °C in humidified 5% CO2 in Dulbecco’s Modified Eagle’s Medium (high glucose supplemented with 10% fetal bovine serum (FBS), 1 μg/mL penicillin-streptomycin, 2 mM L-glutamine, 2.5 μg/mL amphotericin B and 50 μg/mL gentamicin). […] Tested and reference compounds were dissolved in Dulbecco’s phosphate buffered saline (D-PBS) with 1% DMSO and treatments were performed in a volume of 10 μL/mL of cell suspension.
P-ERK 1/2 expression was determined through Western blot analysis according to the previously reported procedure. One-way ANOVA was performed as a statistical analysis using the Graph Pad Prism program (San Diego, CA, USA).
The same procedure was adopted to determine CB1 specific antagonism for compounds which had no effect on P-ERK 1/2 expression themselves. In these last cases, WIN55,212-2 at 25 nM as a reference cannabinoid agonist agent and the new CB1 antagonists at 150–200 nM were employed.

Structure (SMILES)	Ki (CB1 receptor [1])	Kb ([2]; read-out: Antagonist potency pA2 (converted))	Ki (CB2 receptor [3])	Food intake effect over time (C57Bl6/J mice; 10 mg/kg i.p., at 2 h and 3 h)	Activity on food intake compared to rimonabant (C57Bl6/J mice; dose of 10 mg/kg i.p.)	Food intake and body weight on chronic treatment (obese mice)	Blood-brain barrier (BBB) permeability [4]	Ki (CB2 receptor [5])	Ki (CB1 receptor [6])	CB1-affinity decrease relative to 1a (CB1 receptor [6])	Selectivity KiCB2/KiCB1 (CB1 receptor [6])	Effect on gastrointestinal transit compared with that of 1b (CD1 mice)	melting point	Maximum inhibition of the amplitude of electrically-evoked contractions ([2]; cumulative concentration-response curve)	Concentration up to which a dose response effect on P-ERK 1/2 expression was highlighted ([7]; N1E-115 cells)	Effect on P-ERK 1/2 expression (agonist activity towards CB1) ([7]; compound alone, 1b–d at concentrations up to 1 μM)
O=C(NN1CCCCC1)c1nn(-c2ccc(Cl)cc2Cl)c2c1CCOc1cc(Cl)ccc1-2 [Compound 1a, 8-chloro-1-(2,4-dichlorophenyl)-N-piperidin-1-yl-4,5-dihydrobenzo-1H-6-oxa-cyclohepta[1,2-c]pyrazole-3-carboxamide]	10.3 ± 0.41 nM	7.94 nM	> 5000 nM	still markedly decreased food intake	Significant increments of the activity	reduction of food intake and body weight	poor									
O=C(NN1CCCC1)c1nn(-c2ccc(Cl)cc2Cl)c2c1CCOc1cc(Cl)ccc1-2 [Compound 1c, 8-Chloro-1-(2,4-dichlorophenyl)-N-pyrrolidin-1-yl-4,5-dihydrobenzo-1H-6-oxa-cyclohepta[1,2-c]pyrazole-3-carbohydrazide]								4500 ± 500 nM	< 60 nM and 55.1 nM	5.4 fold	> 57	Analogue results	175 °C			
O=C(NN1CCCCCC1)c1nn(-c2ccc(Cl)cc2Cl)c2c1CCOc1cc(Cl)ccc1-2 [Compound 1d, 8-Chloro-1-(2,4-dichlorophenyl)-N-homopiperidin-1-yl-4,5-dihydrobenzo-1H-6-oxa-cyclohepta[1,2-c]pyrazole-3-carbohydrazide]								2000 ± 50 nM	< 60 nM and 35 nM	3.5 fold	> 57	Analogue results	137 to 138 °C			
CC1(C)C2CCC(CNC(=O)c3nn(-c4ccc(Cl)cc4Cl)c4c3CCOc3cc(Cl)ccc3-4)C1C2 (centres unmarked) [Compound 1e, 8-Chloro-1-(2,4-dichlorophenyl)-N-(6,6-dimethyl-bicyclo[3.1.1]hept-2-yl-methyl)-4,5-dihydrobenzo-1H-6-oxa-cyclohepta[1,2-c]pyrazole-3-carboxamide]													142 to 143 °C	around 60%	≤ 75 nM	CB1 agonist activity

Source: article PMC6539809, “Development of Oxygen-Bridged Pyrazole-Based Structures as Cannabinoid Receptor 1 Ligands” (Molecules, 2019)
